From patent US20230143604A1, “QW DOSING OF GIP RECEPTOR AGONIST PEPTIDE COMPOUNDS AND USES THEREOF” (TAKEDA PHARMACEUTICAL COMPANY LIMITED, priority 2020, published 2023) come the findings set out here.

The nature of this data set: physchem. In outline:
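3 mg of peptide treated with 100 μL portions of 200 mM phosphate buffer pH 7.4, sonicating/vortexing up to 1 min, with further buffer added until fully dissolved. Solubility then quantified by HPLC.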

Where [1] appears, read: pH 7.4, aqueous buffer, pH 7.4 Phosphate Buffer - Solubility, 200 mM Phosphate buffer pH 7.4.
[2] abbreviates: pH 7.4, solubility in phosphate buffer at pH 7.4, 200 mM phosphate buffer pH 7.4.

Structures are written as SMILES. Starred links: 1 amine or outer side, 2 acyl side, 3 side chain; linkers in the order of their positions; H or OH if unused. Non-standard residues stand in square brackets, D forms with d. Residues, ends and D or L forms follow the SMILES beside them. Groups on a side chain read outwards from the residue. *: point of attachment. C20 diacid = O=C(O)CCCCCCCCCCCCCCCCCCC(=O)*; C18 diacid = O=C(O)CCCCCCCCCCCCCCCCC(=O)*; γGlu = O=C(O)[C@H](CCC(=O)[*:2])N[*:1]; NMeY = CN[C@@H](Cc1ccc(O)cc1)C(=O)O; AEEA = NCCOCCOCC(=O)O; Aib = CC(C)(N)C(=O)O

With `CC[C@H](C)[C@H](NC(=O)[C@H](CO)NC(=O)[C@H](Cc1ccc(O)cc1)NC(=O)[C@H](CC(=O)O)NC(=O)[C@H](CO)NC(=O)[C@@H](NC(=O)[C@H](Cc1ccccc1)NC(=O)[C@@H](NC(=O)CNC(=O)[C@H](CCC(=O)O)NC(=O)C(C)(C)NC(=O)[C@@H](N)Cc1ccc(O)cc1)[C@@H](C)O)[C@@H](C)CC)C(=O)N[C@@H](C)C(=O)N[C@@H](CC(C)C)C(=O)N[C@@H](CC(=O)O)C(=O)N[C@@H](CCCCN)C(=O)NC(C)(C)C(=O)N[C@@H](C)C(=O)N[C@@H](CCC(N)=O)C(=O)N[C@@H](C)C(=O)N[C@@H](CCCCNC(=O)COCCOCCNC(=O)COCCOCCNC(=O)CC[C@H](NC(=O)CC[C@H](NC(=O)CCCCCCCCCCCCCCCCC(=O)O)C(=O)O)C(=O)O)C(=O)N[C@@H](Cc1ccccc1)C(=O)N[C@H](C(=O)N[C@@H](CCC(=O)O)C(=O)N[C@@H](Cc1c[nH]c2ccccc12)C(=O)N[C@@H](CC(C)C)C(=O)N[C@@H](CC(C)C)C(=O)N[C@@H](C)C(=O)N[C@@H](CCC(N)=O)C(=O)N[C@@H](CCCNC(=N)N)C(=O)NCC(=O)O)C(C)C` [Compound 155] (H-Y[Aib]EGTFISDYSIALDK[Aib]AQAK([AEEA-AEEA-γGlu-γGlu-C18 diacid])FVEWLLAQRG-OH), the solubility – broadly, the dissolved amount per volume that the medium holds – is, setting by setting: (pH 7.4) at least 15 mg/mL; (pH 7.4, aqueous buffer) at least 30 mg/mL.

With `CC[C@H](C)[C@H](NC(=O)[C@H](Cc1ccccc1)NC(=O)[C@@H](NC(=O)CNC(=O)[C@H](CCC(=O)O)NC(=O)C(C)(C)NC(=O)[C@H](Cc1ccc(O)cc1)NC)[C@@H](C)O)C(=O)N[C@@H](CO)C(=O)N[C@@H](CC(=O)O)C(=O)N[C@@H](Cc1ccc(O)cc1)C(=O)N[C@@H](CO)C(=O)N[C@H](C(=O)NC(C)(C)C(=O)N[C@@H](CCCCNC(=O)CNC(=O)CNC(=O)CNC(=O)CNC(=O)CNC(=O)CCCCCCCCCCCCCCCCC(=O)O)C(=O)N[C@@H](CC(=O)O)C(=O)N[C@@H](CCCNC(=N)N)C(=O)NC(C)(C)C(=O)N[C@@H](C)C(=O)N[C@@H](CCC(N)=O)C(=O)NC(C)(C)C(=O)N[C@@H](CC(N)=O)C(=O)N[C@@H](Cc1ccccc1)C(=O)N[C@H](C(=O)N[C@@H](CC(N)=O)C(=O)N[C@@H](Cc1c[nH]c2ccccc12)C(=O)N[C@@H](CC(C)C)C(=O)N[C@@H](CC(C)C)C(=O)N[C@@H](C)C(=O)N[C@@H](CCC(N)=O)C(=O)N[C@@H](CO)C(=O)N1CCC[C@H]1C(=O)N[C@@H](CO)C(=O)N[C@@H](CO)C(=O)NCC(=O)N[C@@H](C)C(=O)N1CCC[C@H]1C(=O)N1CCC[C@H]1C(=O)N1CCC[C@H]1C(=O)N[C@@H](CO)C(N)=O)C(C)C)[C@@H](C)CC` [Compound 275], the solubility under setting [1] is under 15 mg/mL.

Molecule `CC[C@H](C)[C@H](NC(=O)[C@H](CO)NC(=O)[C@H](Cc1ccc(O)cc1)NC(=O)[C@H](CC(=O)O)NC(=O)[C@H](CO)NC(=O)[C@@H](NC(=O)[C@H](Cc1ccccc1)NC(=O)[C@@H](NC(=O)CNC(=O)[C@H](CCC(=O)O)NC(=O)C(C)(C)NC(=O)[C@H](Cc1ccc(O)cc1)NC)[C@@H](C)O)[C@@H](C)CC)C(=O)N[C@@H](C)C(=O)N[C@@H](CC(C)C)C(=O)N[C@@H](CC(=O)O)C(=O)N[C@@H](CCCNC(=N)N)C(=O)NC(C)(C)C(=O)N[C@@H](C)C(=O)N[C@@H](CCC(N)=O)C(=O)NC(C)(C)C(=O)N[C@@H](CC(N)=O)C(=O)N[C@@H](Cc1ccccc1)C(=O)N[C@H](C(=O)N[C@@H](CC(N)=O)C(=O)N[C@@H](Cc1c[nH]c2ccccc12)C(=O)N[C@@H](CC(C)C)C(=O)N[C@@H](CC(C)C)C(=O)N[C@@H](C)C(=O)N[C@@H](CCCCNC(=O)COCCOCCNC(=O)COCCOCCNC(=O)CC[C@H](NC(=O)CC[C@H](NC(=O)CCCCCCCCCCCCCCCCC(=O)O)C(=O)O)C(=O)O)C(=O)N[C@@H](CO)C(=O)N1CCC[C@H]1C(=O)N[C@@H](CO)C(=O)N[C@@H](CO)C(=O)NCC(=O)N[C@@H](C)C(=O)N1CCC[C@H]1C(=O)N1CCC[C@H]1C(=O)N1CCC[C@H]1C(=O)N[C@@H](CO)C(N)=O)C(C)C` [Compound 59] (H-[NMeY][Aib]EGTFISDYSIALDR[Aib]AQ[Aib]NFVNWLLAK([AEEA-AEEA-γGlu-γGlu-C18 diacid])SPSSGAPPPS-NH2) gave a solubility under setting [1] of at least 30 mg/mL and a solubility under setting [2] of at least 15 mg/mL.

For `CC[C@H](C)[C@H](NC(=O)[C@H](CO)NC(=O)[C@H](Cc1ccc(O)cc1)NC(=O)[C@H](CC(=O)O)NC(=O)[C@H](CO)NC(=O)[C@@H](NC(=O)[C@H](Cc1ccccc1)NC(=O)[C@@H](NC(=O)CNC(=O)[C@H](CCC(=O)O)NC(=O)C(C)(C)NC(=O)[C@H](Cc1ccc(O)cc1)NC)[C@@H](C)O)[C@@H](C)CC)C(=O)N[C@@H](C)C(=O)N[C@@H](CC(C)C)C(=O)N[C@@H](CC(=O)O)C(=O)N[C@@H](CCCNC(=N)N)C(=O)NC(C)(C)C(=O)N[C@@H](CCCCNC(=O)COCCOCCNC(=O)COCCOCCNC(=O)CC[C@H](NC(=O)CC[C@H](NC(=O)CCCCCCCCCCCCCCCCC(=O)O)C(=O)O)C(=O)O)C(=O)N[C@@H](CCC(N)=O)C(=O)NC(C)(C)C(=O)N[C@@H](CC(=O)O)C(=O)N[C@@H](Cc1ccccc1)C(=O)N[C@H](C(=O)N[C@@H](CC(N)=O)C(=O)N[C@@H](Cc1c[nH]c2ccccc12)C(=O)N[C@@H](CC(C)C)C(=O)N[C@@H](CC(C)C)C(=O)N[C@@H](C)C(=O)N[C@@H](CCC(N)=O)C(=O)N[C@@H](CCCNC(=N)N)C(=O)NCC(=O)O)C(C)C` [Compound 49] (H-[NMeY][Aib]EGTFISDYSIALDR[Aib]K([AEEA-AEEA-γGlu-γGlu-C18 diacid])Q[Aib]DFVNWLLAQRG-OH), the solubility (pH 7.4) is at least 15 mg/mL and the solubility (pH 7.4, aqueous buffer) is at least 30 mg/mL.

Take `CC[C@H](C)[C@H](NC(=O)[C@H](CO)NC(=O)[C@H](Cc1ccc(O)cc1)NC(=O)[C@H](CC(=O)O)NC(=O)[C@H](CO)NC(=O)[C@@H](NC(=O)[C@H](Cc1ccccc1)NC(=O)[C@@H](NC(=O)CNC(=O)[C@H](CCC(N)=O)NC(=O)C(C)(C)NC(=O)[C@H](Cc1ccc(O)cc1)NC)[C@@H](C)O)[C@@H](C)CC)C(=O)N[C@@H](C)C(=O)N[C@@H](CC(C)C)C(=O)N[C@@H](CC(=O)O)C(=O)N[C@@H](CCCNC(=N)N)C(=O)N[C@@H](CCCCNC(=O)CNC(=O)CNC(=O)CNC(=O)CNC(=O)CNC(=O)CNC(=O)CCCCCCCCCCCCCCCCC(=O)O)C(=O)N[C@@H](Cc1c[nH]cn1)C(=O)N[C@@H](CCC(N)=O)C(=O)NC(C)(C)C(=O)N[C@@H](CC(N)=O)C(=O)N[C@@H](Cc1ccccc1)C(=O)N[C@H](C(=O)N[C@@H](CC(N)=O)C(=O)N[C@@H](Cc1c[nH]c2ccccc12)C(=O)N[C@@H](CC(C)C)C(=O)N[C@@H](CC(C)C)C(=O)N[C@@H](C)C(=O)N[C@@H](CCC(N)=O)C(=O)N[C@@H](CCCNC(=N)N)C(=O)N1CCC[C@H]1C(=O)N[C@@H](CO)C(=O)N[C@@H](CO)C(=O)NCC(=O)N[C@@H](C)C(=O)N1CCC[C@H]1C(=O)N1CCC[C@H]1C(=O)N1CCC[C@H]1C(=O)N[C@@H](CO)C(=O)N[C@@H](CCCNC(=N)N)C(N)=O)C(C)C` [Compound 278]: the solubility under setting [1] was under 15 mg/mL.

With `CC[C@H](C)[C@H](NC(=O)[C@H](CO)NC(=O)[C@H](Cc1ccc(O)cc1)NC(=O)[C@H](CC(=O)O)NC(=O)[C@H](CO)NC(=O)[C@@H](NC(=O)[C@H](Cc1ccccc1)NC(=O)[C@@H](NC(=O)CNC(=O)[C@H](CCC(=O)O)NC(=O)[C@@H](C)NC(=O)[C@H](Cc1ccc(O)cc1)NC)[C@@H](C)O)[C@@H](C)CC)C(=O)N[C@@H](C)C(=O)N[C@@H](CC(C)C)C(=O)N[C@@H](CC(=O)O)C(=O)N[C@@H](CCCNC(=N)N)C(=O)N[C@H](C(=O)N[C@@H](Cc1c[nH]cn1)C(=O)N[C@@H](CCC(N)=O)C(=O)N[C@@H](CCC(N)=O)C(=O)N[C@@H](CC(N)=O)C(=O)N[C@@H](Cc1ccccc1)C(=O)N[C@H](C(=O)N[C@@H](CC(N)=O)C(=O)N[C@@H](Cc1c[nH]c2ccccc12)C(=O)N[C@@H](CC(C)C)C(=O)N[C@@H](CC(C)C)C(=O)N[C@@H](C)C(=O)N[C@@H](CCC(N)=O)C(=O)N[C@@H](CCCCNC(=O)COCCOCCNC(=O)COCCOCCNC(=O)CC[C@H](NC(=O)CCCCCCCCCCCCCCCCC(=O)O)C(=O)O)C(=O)O)C(C)C)[C@@H](C)CC` [Compound 243] (H-[NMeY][dA]EGTFISDYSIALDRIHQQNFVNWLLAQK([AEEA-AEEA-γGlu-C18 diacid])-OH; N-terminus and C-terminus assumed), under “pH 7.4, aqueous buffer”, the solubility is at least 7 mg/mL.

Regarding `CC[C@H](C)[C@H](NC(=O)[C@H](Cc1ccccc1)NC(=O)[C@@H](NC(=O)CNC(=O)[C@H](CCC(=O)O)NC(=O)C(C)(C)NC(=O)[C@H](Cc1ccc(O)cc1)NC)[C@@H](C)O)C(=O)N[C@@H](CO)C(=O)N[C@@H](CC(=O)O)C(=O)N[C@@H](Cc1ccc(O)cc1)C(=O)N[C@@H](CO)C(=O)N[C@H](C(=O)NC(C)(C)C(=O)N[C@@H](CC(C)C)C(=O)N[C@@H](CC(=O)O)C(=O)N[C@@H](CCCNC(=N)N)C(=O)NC(C)(C)C(=O)N[C@@H](C)C(=O)N[C@@H](CCC(N)=O)C(=O)NC(C)(C)C(=O)N[C@@H](CCCCNC(=O)COCCOCCNC(=O)COCCOCCNC(=O)CC[C@H](NC(=O)CC[C@H](NC(=O)CCCCCCCCCCCCCCCCCCC(=O)O)C(=O)O)C(=O)O)C(=O)N[C@@H](Cc1ccccc1)C(=O)N[C@H](C(=O)N[C@@H](CC(N)=O)C(=O)N[C@@H](Cc1c[nH]c2ccccc12)C(=O)N[C@@H](CC(C)C)C(=O)N[C@@H](CC(C)C)C(=O)N[C@@H](C)C(=O)N[C@@H](CCC(N)=O)C(=O)N[C@@H](CCCNC(=N)N)C(=O)N1CCC[C@H]1C(=O)N[C@@H](CO)C(=O)N[C@@H](CO)C(=O)NCC(=O)N[C@@H](C)C(=O)N1CCC[C@H]1C(=O)N1CCC[C@H]1C(=O)N1CCC[C@H]1C(=O)N[C@@H](CO)C(N)=O)C(C)C)[C@@H](C)CC` [Compound 101] (H-[NMeY][Aib]EGTFISDYSI[Aib]LDR[Aib]AQ[Aib]K([AEEA-AEEA-γGlu-γGlu-C20 diacid])FVNWLLAQRPSSGAPPPS-NH2), the solubility was at least 60 mg/mL under setting [1] and at least 15 mg/mL under setting [2].
